Source: patent publication US5091539A, “Azolyl cycloalkanol derivatives and agricultural fungicides” (Shionogi & Co., Ltd., priority 1984, dated 1992)
Converted amounts (≈) assume the structure as drawn.

Experiments:
[1] = test system: Cladosporium herbarum; test: Anti-fungal activity in vitro; assay type: cell-based; settings: 48 h, GY medium, 28° C., 2 days
Method: (§1) (1) Each test compound was diluted by two-fold dilution with GY medium (2% glucose and 0.4% yeast extract) containing 0.01% Tween 80 (trademark). Every diluted solution was inoculated with spore suspension (10^5-5 spores/ml) of Alternaria kikuchiana or a hyphae disk with agar (4 mm in diameter) of other fungi and incubated at 28° C. for 2 days.

[2] = test system: Monilinia fructicola; test: Anti-fungal activity in vitro; assay type: cell-based; settings: 48 h, GY medium, 28° C., 2 days
Method: as §1

[3] = test system: Ustilago nuda; test: Anti-fungal activity in vitro; assay type: cell-based; settings: 48 h, GY medium, 28° C., 2 days
Method: as §1

[4] = test system: Pyrenophora graminea; test: Anti-fungal activity in vitro; assay type: cell-based; settings: 48 h, GY medium, 28° C., 2 days
Method: as §1

[5] = test system: Diaporthe citri; test: Anti-fungal activity in vitro; assay type: cell-based; settings: 48 h, GY medium, 28° C., 2 days
Method: as §1

[6] = test system: Alternaria kikuchiana; test: Anti-fungal activity in vitro; assay type: cell-based; settings: 48 h, GY medium, 28° C., 2 days, spore suspension
Method: as §1

[7] = test system: Corticium rolfsii; test: Anti-fungal activity in vitro; assay type: cell-based; settings: Agroathelia rolfsii, 48 h; GY medium, 28° C., 2 days
Method: as §1

[8] = test system: Cochiobolus sativus; test: Anti-fungal activity in vitro; assay type: cell-based; settings: 48 h; GY medium, 28° C., 2 days
Method: as §1

[9] = test system: Sphaerotheca fuliginea; test: Control test to powdery mildew of cucumber (foliar and soil treatment); assay type: in vivo; settings: index 0-10
[10] = test system: Puccinia coronata; test: Control test of crown rust of oat; assay type: in vivo
Method: (1) Young oats (Cultivar: Pc38) grown in pots in a greenhouse were (i) sprayed with 10 ml each of solution of the test compounds at a prescribed concentration and after air-drying, they were inoculated with 15 mg of uredospores of Puccinia coronata per 20 pots (protective spraying) or (ii) sprayed with the test solution 3 days after inoculation of uredospores. After each plant was kept at 20°-25° C. in a greenhouse for 2 weeks, number of uredia was counted on the first leaf.

[11] = test system: Sphaerotheca fuliginea; test: Control test to powdery mildew of cucumber by vapor (filter paper disks); assay type: in vivo
Method: (1) The first leaves of young cucumber (Cultivar: Matsukaze) planted in pot of 9 cm in diameter were inoculated with spore suspension of Sphaerotheca fuliginea. After the plants were kept in a greenhouse for 2 days, thin cover plates, 15 mm in diameter, were put on the first leaves. Filter paper disks soaked with 80 μl of test solution at a concentration of 31.3, 7.8, 2.0 or 0.5 ppm were put on the plates for 3 days. Disease degrees were observed 14 days after the inoculation.
It is evaluated as + when an inhibition zone was observed around the plate, as ± when the inhibition zone has nearly the same diameter (8 mm) as that of plate or as - when there is no inhibition zone.
(§2) (1) Test methods and evaluation are the same as those in Tests 2, 4 and 6.

[12] = test system: powdery mildew of cucumber and Borytis rot (gray mold) of cucumber; test: Comparative test of cis- and trans-isomers; assay type: in vivo; settings: cis isomer vs trans isomer, about
Description: Each cis- and trans-isomers of 1-(4-chlorophenyl)-2-(1,2,4-triazol-1-yl)cyclohexanol (Compound 22 and the trans-isomer)) and 1-(4-fluorophenyl)-2-(1,2,4-triazol-1-yl)cyclohexanol (Compound 28 and the trans-isomer) are subjected to control test to powdery mildew of cucumber and to Borytis rot (gray mold) of cucumber.
as §2

[13] = test system: Sclerotinia sclerotiorum; test: Control test to Sclerotinia rot of cucumber; assay type: in vivo
Description: (1) This test was practised in the same manner as in the above test, control test of Botrytis rot (gray mold) of cucumber, except for using the mycelium of Sclerotinia sclerotiorum as inoculm. The same as in test 2.

[14] = test system: Botrytis cinerea; test: Control test of Botrytis rot (gray mold) of cucumber; assay type: in vivo
Method: (1) Seedlings of cucumber (Cultivar: Matsukaze) were planted in a pot of 9 cm in diameter. The first leaf was sprayed with 3 ml each of solutions containing the test compound at the concentration of 125 or 31.3 ppm and the plant was dried by the air. After inoculation of the spores of Botrytis cinerea, the plants were kept at 20°±2° C. and 90-100% humidity ((i) protective spraying). Alternatively, the spores were inoculated at first and when the leaves suffered a little (about 2 days after), the solutions of the test compounds were sprayed ((ii) curative spraying). Evaluation was practised 3 days after the inoculation. Percent disease control was calculated by the ratio of diameter of diseased area in treated and untreated plants.
as §2

[15] = test system: Rhizoctonia solani; test: Control test to damping-off of cucumber (Rhizoctonia solani); assay type: in vivo; settings: 31.3 ppm, soil drench, 14 days
Method: (1) The fungus causing damping-off of cucumber seedlings, Rhizoctonia solani or Fusarium oxysporum was cultured on a wheat bran medium at 28° C. for 5 days, which was mixed with sterilized soil and cultured for 2 days to prepare the inoculum. Sterilized soil (150 g) was put into a pot of 9 cm in diameter. The surface of the spot was covered with the above inoculum. […] Twenty cucumber seeds (Cultivar: Matsukaze) were sown 2 days after. The pots were kept at 30°±2° C. for 14 days. The infection was observed 14 days after and disease degree and percent disease degree were obtained by setting an evaluation index for each disease sympton.
(2) Evaluation [formula] wherein a: number of seeds without germination b: number of seedlings showing damping-off c: number of wilted seedlings d: number of seedlings being a little brownish in cotyledons or at the bottom of the stem e: number of uninfected seedlings [formula] wherein a: number of seeds without germination or seedlings with damping-off b: number of wilted seedlings c: number of seedlings being a little brownish in cotyledons or at the bottom of the stem d: number of uninfected seedlings [formula]

O[C@@]1(c2ccc(Cl)cc2)CCCC[C@H]1n1cncn1 (relative stereo) [Compound 22, cis-1-(4-chlorophenyl)-2-(1,2,4-triazol-1-yl)cyclohexanol]
MIC [1]: 6.25 µg/mL (≈ 22.5 µM) | MIC [2]: 0.78 µg/mL (≈ 2.81 µM) | MIC [3]: 12.5 µg/mL (≈ 45 µM) | MIC [4]: 12.5 µg/mL (≈ 45 µM) | MIC [5]: 12.5 µg/mL (≈ 45 µM) | MIC [6]: 50 µg/mL (≈ 180 µM) | MIC [7]: > 50 µg/mL | MIC [8]: 6.25 µg/mL (≈ 22.5 µM) | Powdery mildew, Foliar Treatment, Curative Effect ([9]; Table 9, 0.03 ppm): 9 | Powdery mildew, Foliar Treatment, Protective Effect ([9]; Table 9, 0.03 ppm): 0 | Powdery mildew, Foliar Treatment, Curative Effect ([9]; Table 9, 0.12 ppm): 10 | Powdery mildew, Foliar Treatment, Protective Effect ([9]; Table 9, 0.12 ppm): 9 | Powdery mildew, Foliar Treatment, Curative Effect ([9]; Table 9, 0.5 ppm): 10 | Powdery mildew, Foliar Treatment, Protective Effect ([9]; Table 9, 0.5 ppm): 10 | Powdery mildew, Soil Treatment, Protective Effect ([9]; Table 9, 0.5 ppm): 0 | Powdery mildew, Foliar Treatment, Curative Effect ([9]; Table 9, 2.0 ppm): 10 | Powdery mildew, Foliar Treatment, Protective Effect ([9]; Table 9, 2.0 ppm): 10 | Powdery mildew, Soil Treatment, Protective Effect ([9]; Table 9, 2.0 ppm): 10 | Powdery mildew, Soil Treatment, Protective Effect ([9]; Table 9, 7.8 ppm): 10 | Powdery mildew, Soil Treatment, Protective Effect ([9]; Table 9, 31.3 ppm): 10 | Foliar Treatment, Curative Effect ([9]; second Table 4, 0.5 ppm): 10 | Foliar Treatment, Protective Effect ([9]; second Table 4, 0.5 ppm): 5 (Disease sign is observed on the leaf in about 30%.) | Soil Treatment, Protective Effect ([9]; second Table 4, 0.5 ppm): 0 | Foliar Treatment, Curative Effect ([9]; second Table 4, 2.0 ppm): 10 | Foliar Treatment, Protective Effect ([9]; second Table 4, 2.0 ppm): 10 | Soil Treatment, Protective Effect ([9]; second Table 4, 2.0 ppm): 5 (Disease sign is observed on the leaf in about 30%.) | Foliar Treatment, Curative Effect ([9]; second Table 4, 7.8 ppm): 10 | Foliar Treatment, Protective Effect ([9]; second Table 4, 7.8 ppm): 10 | Soil Treatment, Protective Effect ([9]; second Table 4, 7.8 ppm): 10 | Foliar Treatment, Curative Effect ([9]; second Table 4, 31.3 ppm): 10 | Foliar Treatment, Protective Effect ([9]; second Table 4, 31.3 ppm): 10 | Soil Treatment, Protective Effect ([9]; second Table 4, 31.3 ppm): 10 | Percent Disease Control, Curative Spraying ([10]; 12.5 ppm): 64% | Percent Disease Control, Protective Spraying ([10]; 12.5 ppm): 100% | Percent Disease Control, Curative Spraying ([10]; 25 ppm): 88% | Percent Disease Control, Protective Spraying ([10]; 25 ppm): 100% | Percent Disease Control, Curative Spraying ([10]; 50 ppm): 100% | Percent Disease Control, Protective Spraying ([10]; 50 ppm): 100% | Protective Effect by Vapor ([11]; Table 6, 0.5 ppm): - | Protective Effect by Vapor ([11]; Table 6, 2.0 ppm): - | Protective Effect by Vapor ([11]; Table 6, 7.8 ppm): + | Protective Effect by Vapor ([11]; Table 6, 31.3 ppm): + | Powdery mildew, Vapor Effect ([11]; Table 9, 2.0 ppm): - | Powdery mildew, Vapor Effect ([11]; Table 9, 7.8 ppm): ± | Powdery mildew, Vapor Effect ([11]; Table 9, 31.3 ppm): + | times more effective than the corresponding trans isomer [12]: 4-16 times | Percent Disease Control, Curative Spraying ([13]; 31.3 ppm): 93% | Percent Disease Control, Protective Spraying ([13]; 31.3 ppm): 67% | Percent Disease Control, Curative Spraying ([13]; 125 ppm): 95% | Percent Disease Control, Protective Spraying ([13]; 125 ppm): 100% | Percent Disease Control, Curative Spraying ([14]; Table 2, 31.3 ppm): 46% | Percent Disease Control, Protective Spraying ([14]; Table 2, 31.3 ppm): 100% | Percent Disease Control, Curative Spraying ([14]; Table 2, 125 ppm): 89% | Percent Disease Control, Protective Spraying ([14]; Table 2, 125 ppm): 100% | Gray Mold, Percent Disease Control, Curative Spraying ([14]; Table 9, 7.8 ppm): 20% | Gray Mold, Percent Disease Control, Protective Spraying ([14]; Table 9, 7.8 ppm): 35% | Gray Mold, Percent Disease Control, Curative Spraying ([14]; Table 9, 31.3 ppm): 88% | Gray Mold, Percent Disease Control, Protective Spraying ([14]; Table 9, 31.3 ppm): 62% | Gray Mold, Percent Disease Control, Curative Spraying ([14]; Table 9, 125 ppm): 82% | Gray Mold, Percent Disease Control, Protective Spraying ([14]; Table 9, 125 ppm): 78%

O[C@@]1(c2ccc(F)cc2)CCCC[C@H]1n1cncn1 (relative stereo) [Compound 28, 1-(4-fluorophenyl)-2-(1,2,4-triazol-1-yl)cyclohexanol]
Disease Degree [15]: 8 | Percent Disease Control [15]: 92% | Powdery mildew, Foliar Treatment, Curative Effect ([9]; Table 9, 0.03 ppm): 0 | Powdery mildew, Foliar Treatment, Protective Effect ([9]; Table 9, 0.03 ppm): 0 | Powdery mildew, Foliar Treatment, Curative Effect ([9]; Table 9, 0.12 ppm): 7 (Disease sign is observed on the leaf in about 20%.) | Powdery mildew, Foliar Treatment, Protective Effect ([9]; Table 9, 0.12 ppm): 0 | Powdery mildew, Foliar Treatment, Curative Effect ([9]; Table 9, 0.5 ppm): 10 | Powdery mildew, Foliar Treatment, Protective Effect ([9]; Table 9, 0.5 ppm): 5 (Disease sign is observed on the leaf in about 30%.) | Powdery mildew, Soil Treatment, Protective Effect ([9]; Table 9, 0.5 ppm): 0 | Powdery mildew, Foliar Treatment, Curative Effect ([9]; Table 9, 2.0 ppm): 10 | Powdery mildew, Foliar Treatment, Protective Effect ([9]; Table 9, 2.0 ppm): 10 | Powdery mildew, Soil Treatment, Protective Effect ([9]; Table 9, 2.0 ppm): 9 | Powdery mildew, Soil Treatment, Protective Effect ([9]; Table 9, 7.8 ppm): 10 | Powdery mildew, Soil Treatment, Protective Effect ([9]; Table 9, 31.3 ppm): 10 | Foliar Treatment, Curative Effect ([9]; second Table 4, 0.5 ppm): 5 (Disease sign is observed on the leaf in about 30%.) | Foliar Treatment, Protective Effect ([9]; second Table 4, 0.5 ppm): 0 | Soil Treatment, Protective Effect ([9]; second Table 4, 0.5 ppm): 0 | Foliar Treatment, Curative Effect ([9]; second Table 4, 2.0 ppm): 9 | Foliar Treatment, Protective Effect ([9]; second Table 4, 2.0 ppm): 5 (Disease sign is observed on the leaf in about 30%.) | Soil Treatment, Protective Effect ([9]; second Table 4, 2.0 ppm): 5 (Disease sign is observed on the leaf in about 30%.) | Foliar Treatment, Curative Effect ([9]; second Table 4, 7.8 ppm): 10 | Foliar Treatment, Protective Effect ([9]; second Table 4, 7.8 ppm): 10 | Soil Treatment, Protective Effect ([9]; second Table 4, 7.8 ppm): 10 | Foliar Treatment, Curative Effect ([9]; second Table 4, 31.3 ppm): 10 | Foliar Treatment, Protective Effect ([9]; second Table 4, 31.3 ppm): 10 | Soil Treatment, Protective Effect ([9]; second Table 4, 31.3 ppm): 10 | Powdery mildew, Vapor Effect ([11]; Table 9, 2.0 ppm): - | Powdery mildew, Vapor Effect ([11]; Table 9, 7.8 ppm): ± | Powdery mildew, Vapor Effect ([11]; Table 9, 31.3 ppm): + | times more effective than the corresponding trans isomer [12]: 4-16 times | Percent Disease Control, Curative Spraying ([13]; 31.3 ppm): 77% | Percent Disease Control, Protective Spraying ([13]; 31.3 ppm): 56% | Percent Disease Control, Curative Spraying ([13]; 125 ppm): 97% | Percent Disease Control, Protective Spraying ([13]; 125 ppm): 80% | Percent Disease Control, Curative Spraying ([14]; Table 2, 31.3 ppm): 48% | Percent Disease Control, Protective Spraying ([14]; Table 2, 31.3 ppm): 40% | Percent Disease Control, Curative Spraying ([14]; Table 2, 125 ppm): 79% | Percent Disease Control, Protective Spraying ([14]; Table 2, 125 ppm): 100% | Gray Mold, Percent Disease Control, Curative Spraying ([14]; Table 9, 7.8 ppm): 30% | Gray Mold, Percent Disease Control, Protective Spraying ([14]; Table 9, 7.8 ppm): 17% | Gray Mold, Percent Disease Control, Curative Spraying ([14]; Table 9, 31.3 ppm): 92% | Gray Mold, Percent Disease Control, Protective Spraying ([14]; Table 9, 31.3 ppm): 70% | Gray Mold, Percent Disease Control, Curative Spraying ([14]; Table 9, 125 ppm): 98% | Gray Mold, Percent Disease Control, Protective Spraying ([14]; Table 9, 125 ppm): 80%
